Measurements taken from patent publication US20240352409A1, “CELL SEEDING AGENT AND SUBSTRATE FOR CELL TRANSPLANTATION USE” (CELLUSION INC., priority 2021, published 2024).
“Also recorded” adds a separate entry of the source.

Tests used:
[1] = tested on: iPS cells (FF-101s04 strain); assay: Engraftment of iPS cells seeded in phenolphthalein derivative-added cell seeding agents (differentiation induction, fixed or changed seeding density); assay type: cell-based; details: derivative 0.22 mM, day 7; for cell engraftment at seeding number lower than specified density: seeding density lower than 1.04×10^4 cells/cm^2; for cell engraftment at specified seeding density: seeded at 1.04×10^4 cells/cm^2
Experimental: T12.5 flask (Corning Incorporated/353107) was coated with iMatrix511 (MATRIXOME, Inc./892005) at a concentration of 6 μg/mL. iPS cells (FF-101s04 strain) were suspended in AK03N+Y medium at a density of 8.0×10^3 cells/cm^2, and were seeded into the T12.5 flask. Culture was started in a CO2 incubator at 37° C., and the medium was replaced the next day with AK03N medium not containing Y-27632. After a gap of 2 days, medium exchange was performed for 2 consecutive days, and passage was performed on the 6th day of culture.
A T25 flask (Sumitomo Bakelite Co., Ltd./MS-23050) was coated with iMatrix511 (MATRIXOME, Inc./892005) at a concentration of 6 μg/mL. iPS cells were suspended in AK03N+Y medium at a density of 2.2×10^3 cells/cm^2, and were seeded into the T25 flask. Culture was started in a CO2 incubator at 37° C., and the medium was replaced the next day with AK03N medium not containing Y-27632. After a gap of 2 days, medium exchange was performed for 2 consecutive days, and passage was performed on the 6th day of culture.
DMEM/F12 non phenol red (Thermo Fisher Scientific, Inc./11039-021) was used as the basal medium, and a phenol red-free corneal endothelial substitute cell induction medium was prepared (hereinafter also to be referred to as phenol red-free medium in this Example). To the basal medium (500 mL) were added, as additives, ITS-Supplement (Ventria/777ITS091), IGF1 (OrphanPacific, Inc.; Somazone for injection/858100075, 1 mg/mL), LIF (FUJIFILM Wako Pure Chemical Corporation/125-06661), IL-6 (Miltenyi Biotec/170-076-161), IL-11 (Pepro tech/AF-200-11), TNFα (Miltenyi Biotec/170-076-178), and water-soluble HYDROCORTONE Injection (Nichi-Iko Pharmaceutical Co., Ltd./27126333) described in the following Table 1.
The phenolphthalein derivatives shown in the following Table 2, B to D, were dissolved in advance in ethanol to a concentration of 6.6×10^−6 mol/mL. 30 mL each of the phenol red-free corneal endothelial substitute cell induction medium prepared in the above-mentioned 2. was dispensed into four 50 mL tubes, and 40.5 μL of A phenolsulfonphthalein injection 0.6% (AFP) was added to one of the four tubes. Furthermore, 100 μL of B cresol red solution with adjusted concentration was added to one of the remaining three tubes. Similarly, C thymol blue solution and D bromocresol purple solution were respectively added to the remaining two tubes. A total of four different phenolphthalein derivative-containing media were prepared and used as phenolphthalein derivative-added cell seeding agents. Each seeding agent was adjusted to have a phenolphthalein derivative concentration of 0.22 mM. […]

[2] = tested on: iPS cell-derived corneal endothelial substitute cells; assay: Influence of phenol red in cell seeding agent on engraftment, recovered cell number and survival rate in differentiation induction step; assay type: cell-based; details: with vs without phenol red
Experimental: When induction into corneal endothelial substitute cell was started, iPS cells recovered using TrypLE-Select (Thermo Fisher Scientific) were suspended in a phenol red-added cell seeding agent or phenol red no-addition cell seeding agent. A 100 mm culture dish (Sumitomo Bakelite Co., Ltd.) was coated with iMatrix 511 at a concentration of 3 μg/ml, and iPS cells suspended in each cell seeding agent were seeded at a density of 1.0×10^4 cells/cm^2. Culture was started in a CO2 incubator at 37° C., and thereafter, the medium was replaced with phenol red-added corneal endothelial substitute cell induction medium or phenol red no-addition corneal endothelial substitute cell induction medium at a frequency of once every 2 to 3 days thereafter. Culture was performed for 14 days under the above-mentioned conditions in each medium for inducing corneal endothelial substitute cells. After 3, 5, and 7 days of culture, the state of the cells was confirmed under a microscope (FIG. 2A). After culturing for 14 days, for the groups in which cell engraftment was observed under a microscope, the cells were collected and the number of cells was counted. The cells were collected after removing the culture supernatant, washed twice using DPBS (−) (Thermo Fisher Scientific), detached using Accutase (Innovative Cell Technologies), and collected into a centrifuge tube. The cells collected into the centrifuge tube were separated by centrifugation, and after adjusting the cell concentration using a medium and the like, the cell concentration and survival rate were measured using an automatic cell counter (ChemoMetec) (FIG. 2B).

[3] = tested on: Macaca fascicularis bullous keratopathy model; assay: Transplantation of corneal endothelial substitute cell suspension into anterior chamber of bullous keratopathy model; assay type: in vivo
Experimental: A cell suspension of iPS cell-derived corneal endothelial substitute cells (8×10^5 cells/160 μl) obtained in Example 1 was transplanted to the anterior chamber of a Macaca fascicularis bullous keratopathy model (conducted by SHIN NIPPON BIOMEDICAL LABORATORIES, LTD.). Two types of substrates for transplantation (containing insulin, insulin-like growth factor, and the like) were prepared: one with and one without the addition of phenol red. The corneal endothelial substitute cell suspension was transplanted into the anterior chamber of the eye by the following procedure. • (1) Corneal endothelial substitute cells suspended in two types of substrates for transplantation, with and without phenol red added, were injected into the anterior chamber using a 27-gauge syringe. • (2) Macaca fascicularis was placed face down for 3 hr. • (3) After 28 days of observation, the eyeballs were collected and observed macroscopically and microscopically. Formation of a corneal endothelial substitute cell layer and corneal thickness were measured for the transplanted eye. Corneal thickness was measured using a corneal thickness measuring device (Tomey Corporation; SP-100).

[4] = tested on: iPS cell-derived corneal endothelial substitute cells; assay: Influence of ROCK inhibitor on tight junction formation (ZO-1 expression) during passage operation in differentiation induction; assay type: cell-based; details: 10 μM Y-27632 during passage operation; FIG. 1
Experimental: An influence of a ROCK inhibitor during the passage operation in the differentiation induction step of iPS cell-derived corneal endothelial substitute cells was investigated. According to Example 1 and Experimental Example 2 of Patent Literature 3 (10 μM Y-27632 was used as ROCK inhibitor instead of fasudil), the expression of ZO-1 was investigated.

## Cc1cc(C2(c3ccc(O)c(C)c3)OS(=O)(=O)c3ccccc32)ccc1O [cresol red]
[1]
  cell engraftment at seeding number lower than specified density: cell engraftment was confirmed

## O=S1(=O)OC(c2ccc(O)cc2)(c2ccc(O)cc2)c2ccccc21 [phenol red, phenolsulfonphthalein]
[2]; 3rd, 5th, 7th day of culture, seeded at 1.0×10^4 cells/cm^2, FIG. 2A
  engraftment of cells after seeding (microscope): Engraftment was clearly better
[2]; day 14 of culture, FIG. 2B
  number of recovered viable cells: clearly superior
  survival rate: clearly superior
[3]; 8×10^5 cells/160 μl into anterior chamber, substrate with phenol red, 28 days observation, FIG. 4
  engraftment and distribution of transplanted cells on posterior cornea: engrafted on the posterior cornea and spread uniformly
[3]; substrate for transplantation with phenol red, FIG. 3
  corneal thickness: a decrease in corneal thickness was observed; also recorded: corneal thickness decreased
[3]; substrate for transplantation with phenol red, judged from corneal thickness, FIG. 3
  corneal edema: corneal edema was improved; also recorded: corneal edema-improving effect was observed
[1]
  cell engraftment at seeding number lower than specified density: cell engraftment was confirmed

## Cc1cc(C2(c3cc(C)c(O)c(Br)c3)OS(=O)(=O)c3ccccc32)cc(Br)c1O [bromocresol purple]
[1]
  cell engraftment at specified seeding density: Engraftment was also confirmed

## Cc1cc(O)c(C(C)C)cc1C1(c2cc(C(C)C)c(O)cc2C)OS(=O)(=O)c2ccccc21 [thymol blue]
[1]
  cell engraftment at specified seeding density: Engraftment was also confirmed

## C[C@@H](N)[C@H]1CC[C@H](C(=O)Nc2ccncc2)CC1 [Y-27632]
[4]
  cell transformation (epithelial-to-mesenchymal transition): causes transformation that appears to be epithelial-to-mesenchymal transition
  formation of tight junction (expression of ZO-1): formation of tight junction was inhibited; also recorded: inhibits the formation of tight junction
